From patent US9139581B2 (PORTOLA PHARMACEUTICALS, INC., priority 2008, dated 2015) come the findings set out here.

The first assay has as its target T1, full length active recombinant SYK enzyme (Homo sapiens, UniProt P43405).
T1 construct: full length active recombinant SYK enzyme (Millipore, Calif.); purchased Millipore
Put plainly: Inhibition of Syk tyrosine phosphorylation activity (LANCE TR-FRET). The note with it: Table 3; 1 nM SYK, 100 μM ATP; read-out: Syk IC50 code. Format: biochemical. As to the method: The in vitro and in vivo human syk activities of the inventive compounds can be determined by various procedures known in the art, such as a test for their ability to inhibit the activity of human plasma syk. […] Inhibition of Syk Tyrosine Phosphorylation Activity Potency of candidate molecules for inhibiting syk tyrosine phosphorylation activity is assessed by measuring the ability of a test compound to inhibit syk-mediated tyrosine phosphorylation of a syk-specific substrate. SYK tyrosine phosphorylation activity is measured using the LANCETM Technology developed by Perkin Elmer Life and Analytical Sciences (Boston, Mass.). LANCETM refers to homogeneous time resolved fluorometry applications using techniques such as time-resolved fluorescence resonance energy transfer assay (TR-FRET) (see generally for procedures in Perkin Elmer Application Note-How to Optimize a Tyrosine Kinase Assay Using Time Resolved Fluorescence-Based LANCE Detection, wwww.perkinelmer.com/lifesciences). The assay principle involves detection of a phosphorylated substrate using energy transfer from a phosphospecific europium-labeled antibody to streptavidin-allophycocyanin as an acceptor. To test the ability of candidate molecules to inhibit SYK tyrosine phosphorylation activity, molecules are reconstituted in 30% DMSO and serially diluted 1:3 with the final dilution containing DMSO in the absence of the candidate molecule. The final DMSO concentration in the assay is 3%. Kinase assays are performed as a two part reaction. The first reaction is a kinase reaction and which comprises of a candidate molecule, full length active recombinant SYK enzyme (Millipore, Calif.) and biotin-labeled SYK-specific substrate biotin-[…]-OH. The second reaction involves termination of the kinase reaction and the simultaneous addition of the detection reagents-europium-labeled anti-phosphotyrosine reagent (Eu-W1024-PY100, Perkin Elmer, Boston, Mass.) and Streptavidin-Allophycocyanin detection reagent (SA-APC, Prozyme, Calif.). The kinase reaction is performed in a black U-bottom 96-well microtitre plate. […] The reaction is allowed to proceed for 1 hour at room temperature. […] The detection reagents are added to the reaction mixture at the following dilutions-1:500 for Eu-W1024-PY100 and 1:250 for SA-APC. The kinase reaction is terminated by the addition of 50 μL quench buffer containing the detection reagents. The detection is allowed to proceed for 1 hr at room temperature. Detection of the phosphorlated substrate in the absence and presence of inhibitors is measured in the TR-FRET instrument, Analyst HT ([…], Sunnyvale, Calif.) and the condition for measurements are set up using CriterionHost Release 2.0 ([…], Sunnyvale, Calif.). […] IC50s were derived by non-linear regression analysis.
For orientation: In TR-FRET formats the signal depends on donor and acceptor labels being close together.
Regarding `NC(=O)c1cnc(-[n+]2ccc(-c3ccc(N)cc3)cc2)nc1NC1CC1` [Example 5, 4-(4-aminophenyl)-1-(5-carbamoyl-4-(cyclopropylamino)pyrimidin-2-yl)pyridinium], the IC50 is above 1000 nM.

As to `NC(=O)c1ccc(Nc2ncc(F)c(N[C@H]3CC[C@@H](N)CC3)n2)cc1` [Example 141, 4-(4-((1s,4s)-4-aminocyclohexylamino)-5-fluoropyrimidin-2-ylamino)benzamide], the IC50 was 100 to 1000 nM.

`CN(C(=O)CO)c1ccc(Nc2nc(NC3CCC3)c3cc[nH]c3n2)cc1` [Example 74, N-(4-(4-(cyclobutylamino)-7H-pyrrolo[2,3-d]pyrimidin-2-ylamino)phenyl)-2-hydroxy-N-methylacetamide]: the IC50 fell in the range of 10 to 100 nM.

As to `CN1C(=O)CCc2cc(Nc3nc(Nc4ccc(F)cc4)c4c(-c5ccncc5)c[nH]c4n3)ccc21` [Example 112, 6-(4-(4-fluorophenylamino)-5-(pyridin-4-yl)-7H-pyrrolo[2,3-d]pyrimidin-2-ylamino)-1-methyl-3,4-dihydroquinolin-2(1H)-one], the IC50 is 100 to 1000 nM.

Turning to `NCC1CCN(c2nc(Nc3ccc4c(c3)CCC(=O)N4)ncc2C2CC2)CC1` [Example 139, 6-(4-(4-(aminomethyl)piperidin-1-yl)-5-cyclopropylpyrimidin-2-ylamino)-3,4-dihydroquinolin-2(1H)-one], the IC50 lay within 100 to 1000 nM.

Turning to `CC(=O)N(C)c1ccc(Nc2nc(NCCN)c3cc[nH]c3n2)cc1` [Example 64, N-(4-(4-(2-aminoethylamino)-7H-pyrrolo[2,3-d]pyrimidin-2-ylamino)phenyl)-N-methylacetamide], the IC50 was 100 to 1000 nM.

In the case of `CC(C)(C)OC(=O)N1CCC(Nc2nc(Nc3ccc4cn[nH]c4c3)nc3[nH]ccc23)CC1` [Example 57, tert-butyl 4-(2-(1H-indazol-6-ylamino)-7H-pyrrolo[2,3-d]pyrimidin-4-ylamino)piperidine-1-carboxylate], the IC50 is above 1000 nM.

In the case of `NC(=O)c1ccc(Nc2nc(NC3CC3)c3c(-c4ccncc4)c[nH]c3n2)cc1` [Example 101, 4-(4-(cyclopropylamino)-5-(pyridin-4-yl)-7H-pyrrolo[2,3-d]pyrimidin-2-ylamino)benzamide], the IC50 lay in the range of 10 to 100 nM.

With `N[C@H]1CC[C@@H](Nc2nc(Nc3ccc4c(c3)CCC(=O)N4)ncc2C2CC2)CC1` [Example 144, 6-(4-((1s,4s)-4-aminocyclohexylamino)-5-cyclopropylpyrimidin-2-ylamino)-3,4-dihydroquinolin-2(1H)-one], the IC50 lay in the range of 10 to 100 nM.

Turning to `CC(=O)N(C)c1ccc(Nc2nc(NC3CC3)c3c(-c4ccncc4)c[nH]c3n2)cc1` [Example 47, N-(4-(4-(cyclopropylamino)-5-(pyridin-4-yl)-7H-pyrrolo[2,3-d]pyrimidin-2-ylamino)phenyl)-N-methylacetamide], the half-maximal inhibitory concentration (IC50) lay within 10 to 100 nM.

As to `N#Cc1c[nH]c2nc(Nc3ccc(C(N)=O)cc3)nc(NC3CC3)c12` [Example 104, 4-(5-cyano-4-(cyclopropylamino)-7H-pyrrolo[2,3-d]pyrimidin-2-ylamino)benzamide], the IC50 was in the range of 10 to 100 nM.

`COC(=O)N(C)c1ccc(Nc2nc(NC3CC3)c3cc[nH]c3n2)cc1` [Example 73]: the IC50 fell in the range of 100 to 1000 nM.

In the case of `CCOC(=O)CC(N)C1CCN(c2nc(Nc3ccc4c(c3)CCC(=O)N4)ncc2F)CC1` (stereo not drawn) [Example 134, Ethyl 3-amino-3-(1-(5-fluoro-2-(2-oxo-1,2,3,4-tetrahydroquinolin-6-ylamino)pyrimidin-4-yl)piperidin-4-yl)propanoate], the IC50 fell in the range of 100 to 1000 nM.

For the compound `c1cc(-c2c[nH]c3nc(Nc4ccc5cn[nH]c5c4)nc(NC4CC4)c23)ccn1` [Example 43, N4-cyclopropyl-N2-(1H-indazol-6-yl)-5-(pyridin-4-yl)-7H-pyrrolo[2,3-d]pyrimidine-2,4-diamine], the IC50 was 100 to 1000 nM.

Turning to `O=C(O)CN1C(=O)CCc2cc(Nc3nc(NC4CCC4)c4cc[nH]c4n3)ccc21` [Example 70, 2-(6-(4-(cyclobutyamino)-7H-pyrrolo[2,3-d]pyrimidine-2-ylamino)-2-oxo-3,4-dihydroquinolin-1(2H)-yl)acetic acid], the IC50 was 10 to 100 nM.

As for `CC(=O)N1CCN(c2ccc(Nc3nc(NCC4CCNCC4)c4c(-c5ccncc5)c[nH]c4n3)cc2)CC1` [Example 44, 1-(4-(4-(4-(piperidin-4-ylmethylamino)-5-(pyridin-4-yl)-7H-pyrrolo[2,3-d]pyrimidin-2-ylamino)phenyl)piperazin-1-yl)ethanone], the concentration for half-maximal inhibition (IC50) is above 1000 nM.

As to `CN(C)CC1CCN(c2nc(Nc3ccc(C(N)=O)cc3)ncc2F)CC1` [Example 133, 4-(4-(4-((dimethylamino)methyl)piperidin-1-yl)-5-fluoropyrimidin-2-ylamino)benzamide], the IC50 was above 1000 nM.

For `CNc1nc(Nc2ccc(N(C)C(=O)C3CC3)cc2)nc2[nH]ccc12` [Example 82, N-(4-(4-(methylamino)-7H-pyrrolo[2,3-d]pyrimidin-2-ylamino)phenyl)-N-methylcyclopropanecarboxamide], the IC50 was 100 to 1000 nM.

For the compound `CN(C)CCCNC(=O)c1ccc(Nc2nc(NC3CCC3)c3cc[nH]c3n2)cc1` [Example 85], the IC50 lay within 100 to 1000 nM.

As for `O=C1CCc2cc(Nc3nc(NC4CC4)c4c(-c5ccncc5)c[nH]c4n3)ccc2N1` [Example 48, 6-(4-(cyclopropylamino)-5-(pyridin-4-yl)-7H-pyrrolo[2,3-d]pyrimidin-2-ylamino)-3,4-dihydroquinolin-2(1H)-one], the IC50 lay within 10 to 100 nM.

Take `CC(=O)N(C)c1ccc(Nc2nc(NCCCCCN)c3cc[nH]c3n2)cc1` [Example 65, N-(4-(4-(5-aminopentylamino)-7H-pyrrolo[2,3-d-]pyrimidin-2-ylamino)phenyl)-N-methylacetamide]: the IC50 lay in the range of 100 to 1000 nM.

Turning to `CCCCOC(=O)CC1CCN(c2nc(Nc3ccc4c(c3)CCC(=O)N4)nc3[nH]ccc23)CC1` [Example 119, Butyl 2-(1-(2-(2-oxo-1,2,3,4-tetrahydroquinolin-6-ylamino)-7H-pyrrolo[2,3-d]pyrimidin-4-yl)piperidin-4-yl)acetate], the IC50 was above 1000 nM.

Regarding `CC(=O)N1CCN(c2ccc(Nc3ncc(F)c(N4CCNCC4)n3)cc2)CC1` [Example 124, 1-(4-(4-(5-fluoro-4-(piperazin-1-yl)pyrimidin-2-ylamino)phenyl)piperazin-1-yl)ethanone], the IC50 was above 1000 nM.

Turning to `NCC1CCN(c2nc(Nc3ccc4c(c3)CCC(=O)N4)ncc2-c2ccncc2)CC1` [Example 138, 6-(4-(4-(aminomethyl)piperidin-1-yl)-5-(pyridin-4-yl)pyrimidin-2-ylamino)-3,4-dihydroquinolin-2(1H)-one], the IC50 is above 1000 nM.

Still in this assay, the particulars now being: Table 4; 1 nM SYK, 100 μM ATP; read-out: syk IC50.
For the compound `N[C@H]1CCCN(c2nc(Nc3ccc4cn[nH]c4c3)nc3[nH]ccc23)C1` [(S)-4-(3-aminopiperidin-1-yl)-N-(1H-indazol-6-yl)-7H-pyrrolo[2,3-d]pyrimidin-2-amine], the concentration for half-maximal inhibition (IC50) fell in the range of 100 to 1000 nM.

For `CC(=O)N1CCN(c2ccc(Nc3ncc(F)c(N4CCCCC4CN)n3)cc2)CC1` (stereo not drawn) [Example 34, 1-(4-(4-(4-(2-(aminomethyl)piperidin-1-yl)-5-fluoropyrimidin-2-ylamino)phenyl)piperazin-1-yl)ethanone], the IC50 was above 1000 nM.

As to `c1cc2c(N3CCCCC3)nc(Nc3ccc(N4CCNCC4)cc3)nc2[nH]1` [Example 19, N-(4-(piperazin-1-yl)phenyl)-4-(piperidin-1-yl)-7H-pyrrolo[2,3-d]pyrimidin-2-amine], the IC50 is above 1000 nM.

Regarding `CC(C)(C)OC(=O)NCC1CCN(c2nc(Nc3ccc(C(N)=O)cc3)ncc2F)CC1` [Example 30, tert-butyl (1-(2-(4-carbamoylphenylamino)-5-fluoropyrimidin-4-yl)piperidin-4-yl)methylcarbamate], the IC50 was above 1000 nM.

Turning to `CC(=O)N1CCN(c2ccc(Nc3nc(N4CCCC4)c4cc[nH]c4n3)cc2)CC1` [Example 22, 1-(4-(4-(4-(pyrrolidin-1-yl)-7H-pyrrolo[2,3-d]pyrimidin-2-ylamino)phenyl)piperazin-1-yl)ethanone], the IC50 was in the range of 100 to 1000 nM.

Regarding `CC(=O)N1CCN(c2ccc(Nc3nc(N4CCC(C(N)=O)CC4)c4cc[nH]c4n3)cc2)CC1` [Example 24, 1-(2-(4-(4-acetylpiperazin-1-yl)phenylamino)-7H-pyrrolo[2,3-d]pyrimidin-4-yl)piperidine-4-carboxamide], the IC50 fell in the range of 100 to 1000 nM.

The IC50 is the point on the concentration scale where inhibition reaches its midpoint.
